What was measured:
human 5HT6 receptor = human 5HT6 receptor (Homo sapiens, UniProt P50406); experiment: Binding affinity for the 5-HT6 receptor (3H-LSD displacement); set-up: expressed in transfected cells; settings: 100 nM test compound; 3H-LSD (2 nM); 60 minute incubation at 37° C; read-out: percent inhibition of radioligand binding for the 5-HT6 receptor
Experimental: Binding Affinity for the 5-HT6 Receptor
The assay protocol generally entailed the incubation of membranes prepared from cells expressing the 5-HT6 receptor with ^3 H-LSD (2 nM). Increasing levels of the test compound were incubated with the radioligand and the membrane homogenates prepared from the recombinant cells. After a 60 minute incubation at 37° C., the incubation was terminated by vacuum filtration. The filters were washed with buffer and the filters were counted for radioactivity using liquid scintillation spectrometry. […] Concentrations ranging from 10^-11 M to 10^-5 M of the test compound were evaluated. […] Affinity for the 5-HT6 receptor is expressed as the amount (in percent) of binding of the radioligand that is inhibited in the presence of 100 nM of test compound. A greater percent inhibition indicates greater affinity for the 5-HT6 receptor.

5HT2C receptor = target: T1, 5HT2C receptor (Homo sapiens, UniProt P28335); experiment: Binding to 5HT2C receptor (selectivity); settings: selectivity versus 5-HT6; read-out: percent inhibition for the 5HT2C receptor
T1 sequence (P28335 33-458): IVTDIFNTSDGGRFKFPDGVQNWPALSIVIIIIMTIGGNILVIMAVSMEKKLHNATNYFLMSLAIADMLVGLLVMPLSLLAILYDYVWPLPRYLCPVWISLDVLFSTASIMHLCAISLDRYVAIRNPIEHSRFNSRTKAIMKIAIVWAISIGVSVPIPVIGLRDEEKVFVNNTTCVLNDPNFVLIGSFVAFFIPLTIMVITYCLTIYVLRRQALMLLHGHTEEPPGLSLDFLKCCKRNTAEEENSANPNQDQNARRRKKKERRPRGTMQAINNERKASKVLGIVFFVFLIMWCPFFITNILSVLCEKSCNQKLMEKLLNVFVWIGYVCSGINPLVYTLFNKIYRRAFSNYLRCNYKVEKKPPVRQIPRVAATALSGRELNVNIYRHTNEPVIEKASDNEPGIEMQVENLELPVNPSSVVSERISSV

5-HT7 receptor = 5-HT7 receptor (Homo sapiens, UniProt P34969); experiment: Binding to 5-HT7 receptor (selectivity); set-up: dose or concentration left out as unconfirmed; settings: selectivity versus 5-HT6; read-out: percent inhibition for the 5-HT7 receptor
Chain of 5-HT7 receptor (P34969 whole entry): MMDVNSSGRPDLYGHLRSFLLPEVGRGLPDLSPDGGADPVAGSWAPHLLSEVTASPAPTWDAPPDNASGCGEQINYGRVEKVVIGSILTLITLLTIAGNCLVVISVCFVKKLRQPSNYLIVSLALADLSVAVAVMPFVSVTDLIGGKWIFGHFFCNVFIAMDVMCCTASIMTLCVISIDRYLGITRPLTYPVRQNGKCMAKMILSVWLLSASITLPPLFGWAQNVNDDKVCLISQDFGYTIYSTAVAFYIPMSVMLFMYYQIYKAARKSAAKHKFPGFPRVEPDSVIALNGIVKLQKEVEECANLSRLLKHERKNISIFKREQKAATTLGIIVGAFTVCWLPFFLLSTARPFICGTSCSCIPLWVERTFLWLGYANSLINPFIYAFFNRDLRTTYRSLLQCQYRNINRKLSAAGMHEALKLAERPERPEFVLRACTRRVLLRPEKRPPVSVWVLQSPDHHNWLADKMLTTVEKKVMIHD

5-HT2A receptor = 5-HT2A receptor (Homo sapiens, UniProt P28223); experiment: Binding to 5-HT2A receptor (selectivity); set-up: dose or concentration left out as unconfirmed; settings: selectivity versus 5-HT6; read-out: percent inhibition for the 5-HT2A receptor
Chain of 5-HT2A receptor (P28223 whole entry): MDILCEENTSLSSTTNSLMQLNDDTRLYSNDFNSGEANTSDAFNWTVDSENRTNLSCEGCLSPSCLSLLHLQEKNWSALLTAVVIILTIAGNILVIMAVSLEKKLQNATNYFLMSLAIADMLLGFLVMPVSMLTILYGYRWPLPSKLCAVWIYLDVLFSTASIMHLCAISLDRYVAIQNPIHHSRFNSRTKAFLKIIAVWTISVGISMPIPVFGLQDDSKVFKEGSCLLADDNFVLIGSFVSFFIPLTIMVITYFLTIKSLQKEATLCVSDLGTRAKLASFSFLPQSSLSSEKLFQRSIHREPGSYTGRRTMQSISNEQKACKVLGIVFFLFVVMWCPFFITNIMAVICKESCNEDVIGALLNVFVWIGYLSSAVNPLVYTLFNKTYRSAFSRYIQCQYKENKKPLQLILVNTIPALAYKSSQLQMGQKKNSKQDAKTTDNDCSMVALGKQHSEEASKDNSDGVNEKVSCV

Chain of human 5HT6 receptor (P50406 whole entry): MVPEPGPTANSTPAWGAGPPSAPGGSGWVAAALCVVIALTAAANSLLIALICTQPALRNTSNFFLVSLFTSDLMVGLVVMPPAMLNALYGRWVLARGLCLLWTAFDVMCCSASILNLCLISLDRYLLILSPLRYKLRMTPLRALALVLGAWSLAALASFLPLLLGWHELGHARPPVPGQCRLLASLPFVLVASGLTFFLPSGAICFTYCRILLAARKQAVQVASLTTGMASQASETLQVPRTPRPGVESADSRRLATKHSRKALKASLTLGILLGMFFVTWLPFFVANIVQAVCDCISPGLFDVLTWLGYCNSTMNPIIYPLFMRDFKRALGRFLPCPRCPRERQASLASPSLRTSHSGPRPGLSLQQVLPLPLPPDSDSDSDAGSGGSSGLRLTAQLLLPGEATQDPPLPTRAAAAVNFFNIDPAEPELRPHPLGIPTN

Structure (SMILES) | inhibition at 0.1 µM (human 5HT6 receptor) [%] | inhibition at 0.1 µM (5HT2C receptor) [%] | inhibition (5-HT7 receptor) [%] | inhibition (5-HT2A receptor) [%]
O=S(=O)(c1ccc2ccccc2c1)n1cc(N2CCN3CCCC3C2)c2ccccc21 (racemic) [Example 6a, 3-[(6-R,S)-1,4-Diaza[4.3. 0]bicyclonon-4-yl]-1-(2-naphthalenesulfonyl)indole] | > 80 | < 20 | < 20 | < 20
O=S(=O)(c1ccc(F)cc1)n1cc(C2=CCN3CCCC3C2)c2cc(F)ccc21 (racemic) [Example 6aa, 5-Fluoro-1-(4-fluorophenylsulfonyl)-3-[(8a-R,S)-1,2,3,5,8,8a-hexahydro-7-indolizinyl]indole] | > 80 | < 20 | < 20 | < 20
O=S(=O)(c1ccc(Br)cc1)n1cc(C2=CCN3CCCC3C2)c2cc(F)ccc21 (racemic) [Example 6bb, 1-(4-Bromophenylsulfonyl)-5-fluoro-3-[(8a-R,S)-1,2,3,5,8,8a-hexahydro-7-indolizinyl]indole] | > 80 | < 20 | < 20 | < 20
O=S(=O)(c1ccc(Br)cc1)n1cc(N2CCN3CCCC3C2)c2ccccc21 (racemic) [Example 6c, 1-(4-Bromophenylsulfonyl)-3-[(6-R,S)-1,4-diaza[4.3. 0]bicyclonon-4-yl]indole] | > 80 | < 20 | < 20 | < 20
O=S(=O)(c1ccccc1Br)n1cc(C2=CCN3CCCC3C2)c2cc(F)ccc21 (racemic) [Example 6cc, 1-(2-Bromophenylsulfonyl)-5-fluoro-3-[(8a-R,S)-1 ,2,3,5,8,8a-hexahydro-7-indolizinyl]indole] | > 80 | < 20 | < 20 | < 20
CC(C)(C)c1ccc(S(=O)(=O)n2cc(N3CCN4CCCC4C3)c3ccccc32)cc1 (racemic) [Example 6d, 1-(4-t-Butylphenylsulfonyl)-3-[(6-R,S)-1,4-diaza[4.3. 0]bicyclonon-4-yl]indole] | > 80 | < 20 | < 20 | < 20
Cc1ccc(S(=O)(=O)n2cc(C3=CCN4CCCC4C3)c3cc(F)ccc32)cc1 (racemic) [Example 6dd, 5-Fluoro-3-[(8a-R,S)-1,2,3,5,8,8a-hexahydro-7-indolizinyl]-1-(4-methylphenylsulfonyl)indole] | > 80 | < 20 | < 20 | < 20
O=S(=O)(c1ccc(Cl)cc1)n1cc(N2CCN3CCCC3C2)c2ccccc21 (racemic) [Example 6e, 1-(4-Chlorophenylsulfonyl)-3-[(6-R,S)-1,4-diaza[4.3. 0]bicyclonon-4-yl]indole] | > 80 |  |  | 
COc1ccc(S(=O)(=O)n2cc(C3=CCN4CCCC4C3)c3cc(F)ccc32)cc1 (racemic) [Example 6ee, 5-Fluoro-3-[(8a-R,S)-1,2,3,5,8,8a-hexahydro-7-indolizinyl]-1-(4-methoxyphenylsulfonyl)indole] | > 80 | < 20 | < 20 | < 20
O=S(=O)(c1ccc(F)cc1)n1cc(N2CCN3CCCC3C2)c2ccccc21 (racemic) [Example 6f, 3-[(6-R,S)-1,4-Diaza[4.3. 0]bicyclonon-4-yl]-1-(4-fluorophenylsulfonyl)indole] | > 80 |  |  | 
COc1ccc(S(=O)(=O)n2cc(N3CCN4CCCC4C3)c3ccccc32)cc1 (racemic) [Example 6g, 3-[(6-R,S)-1,4-Diaza[4.3. 0]bicyclonon-4-yl]-1-(4-methoxyphenylsulfonyl)indole] | > 80 | < 20 | < 20 | < 20
CC(C)(C)c1ccc(S(=O)(=O)n2cc(C3=CCN4CCCC4C3)c3cc(F)ccc32)cc1 (racemic) [Example 6gg, 1-(4-t-Butylphenylsulfonyl)-5-fluoro-3-[(8a-R,S)-1,2,3,5,8,8a-hexahydro-7-indolizinyl]indole] | > 80 | < 20 | < 20 | < 20
O=S(=O)(c1cc(Cl)ccc1Cl)n1cc(N2CCN3CCCC3C2)c2ccccc21 (racemic) [Example 6h, 3-[(6-R,S)-1,4-Diaza[4.3. 0]bicyclonon-4-yl]-1-(2,5-dichlorophenylsulfonyl)indole] | > 80 |  |  | 
O=S(=O)(c1cc(Cl)ccc1Cl)n1cc(C2=CCN3CCCC3C2)c2cc(F)ccc21 (racemic) [Example 6hh, 1-(2,5-Dichlorophenylsulfonyl)-5-fluoro-3-[(8a-R,S)-1,2,3,5,8,8a-hexahydro-7-indolizinyl]indole] | > 80 | < 20 | < 20 | < 20
O=S(=O)(c1ccccc1Br)n1cc(N2CCN3CCCC3C2)c2ccccc21 (racemic) [Example 6i, 1-(2-Bromophenylsulfonyl)-3-[(6-R,S)-1,4-diaza[4.3. 0]bicyclonon-4-yl]indole] | > 80 |  |  | 
O=S(=O)(c1ccc(Cl)cc1)n1cc(C2=CCN3CCCC3C2)c2cc(F)ccc21 (racemic) [Example 6ii, 1-(4-Chlorophenylsulfonyl)-5-fluoro-3-[(8a-R,S)-1,2,3,5,8,8a-hexahydro-7-indolizinyl]indole] | > 80 | < 20 | < 20 | < 20
O=S(=O)(c1ccccc1)n1cc(C2=CCN3CCCC3C2)c2cc(F)cc(F)c21 (racemic) [Example 6jj, 5,7-Difluoro-3-[(8a-R,S)-1,2,3,5,8,8a-hexahydro-7-indolizinyl]-1-phenylsulfonylindole] | > 80 | < 20 | < 20 | < 20
Cc1ccc(S(=O)(=O)n2cc(N3CCN4CCCC4C3)c3ccccc32)cc1 (racemic) [Example 6k, 3-[(6-R,S)-1,4-Diaza[4.3. 0]bicyclonon-4-yl]-1-(4-methylphenylsulfonyl)indole] | > 80 |  |  | 
Cc1ccc(S(=O)(=O)n2cc(N3CCN4CCCCC4C3)c3ccccc32)cc1 (racemic) [Example 6v, 3-[(6-R,S)-1,4-Diaza[4.4. 0]bicyclodecan-4-yl]-1-(4-methylphenylsulfonyl)indole] | > 80 |  |  | 
Cc1ccc(S(=O)(=O)n2nc(N3CCN4CCCC4C3)c3ccccc32)cc1 (racemic) [Example 7a, 3-[(6-R,S)-1,4-Diaza[4.3. 0]bicyclonon-4-yl]-1-(4-methylphenylsulfonyl)indazole] | > 80 |  |  | 
Cc1ccc(S(=O)(=O)n2nc(N3CCN4CCCCC4C3)c3ccccc32)cc1 (racemic) [Example 7b, 3-[(6-R,S)-1,4-Diaza[4.4. 0]bicyclodecan-4-yl]-1-(4-methylphenylsulfonyl)indazole] | > 80 |  |  | 
Cc1cccc(-n2cc(C3CCN4CCCC4C3)c3cc(F)ccc32)c1 (racemic) [Example 9a, 5-Fluoro-3-[(7-R,S)(8a-R,S)-octahydro-7-indolizinyl]-1-(3-methylphenyl)indole] | > 80 |  |  | 
O=S(=O)(c1ccccc1)n1cc(C2=CCN3CCCC3C2)c2cc(OC3CCCCC3)ccc21 (racemic) [Example 10i, 5-Cyclohexyloxy-3-[(8a-R,S)-1,2,3,5,8,8a-hexahydrohydro-7-indolizinyl]-1-phenylsulfonylindole] | > 80 |  |  | 
Fc1ccc2c(c1)c(C1CCN3CCCC3C1)cn2Cc1ccccc1 (single isomer, unassigned; isomer i) [Example 10h, 1-Benzyl-5-fluoro-3-[(7R or 7S)(8a-R,S)-octahydrohydro-7-indolizinyl]indole, Isomer I] | > 80 |  |  | 
O=S(=O)(c1cc(Cl)ccc1Cl)n1cc(C2CCN3CCCC3C2)c2cc(F)ccc21 (single isomer, unassigned; isomer i) [Example 10j, 1-(2,5-Dichlorophenylsulfonyl)-5-Fluoro-3-[(7R or 7S)(8a-R,S)-octahydrohydro-7-indolizinyl]indole, Isomer I] | > 80 |  |  | 
Cc1cccc(S(=O)(=O)n2cc(C3CCN4CCCC4C3)c3cc(F)ccc32)c1 (single isomer, unassigned; isomer i) [Example 10k, 5-Fluoro-1-(3-methylphenylsulfonyl)-3-[(7R or 7S)(8a-R,S)octahydrohydro-7-indolizinyl]lindole, Isomer I] | > 80 |  |  | 

Source: patent US6251893A, “Bicyclic piperidine and piperazine compounds having 5-HT6 receptor affinity” (NPS Allelix Corp., priority 1998, dated 2001)
